The results in this text go back to ChEMBL document CHEMBL1201862, “PubChem BioAssay data set” (2004).

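Growth conditions: 96-well plates. Treatment: test compound, 48 hours, 5 concentrations. Analysis: linear interpolation between bracketing concentrations; unreached endpoints set to highest concentration. Here, GI50 denotes the concentration required for 50% inhibition of growth.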 The source made the active and inactive calls. No stated cut-off is given here; in the data, active = GI50 up to about 1.1 µM and inactive = higher.

Among the test systems are Hs-578T; SF-539; BT-549; TK-10; MDA-MB-231; 786-0; LOX IMVI; SN12C; RPMI-8226; OVCAR-5; DMS-114; T47D; DU-145; SF-295; U-251; K562; SF-268; CAKI-1; CCRF-CEM; SW-620.
What all share (assay): NCI-60 cell line screen, 48 h

For `COc1c(CC=C(C)C)c(O)c(C(CC(C)C)c2c(O)c(CC=C(C)C)c(O)c(C(C)=O)c2O)c(O)c1C(C)=O` (stereo not given), the GI50 was 1.07 µM (active) with Hs-578T; 1.16 µM (inactive) in the experiment on SF-539; 1.62 µM (inactive) in the experiment with BT-549; 1.03 µM (active) in the experiment with TK-10; 1.64 µM (inactive) in the experiment with MDA-MB-231; 1.63 µM (inactive) in the experiment on 786-0. Also, the GI50 in the experiment on LOX IMVI was 1.57 µM (inactive); in the experiment on SN12C, 0.469 µM (active); with RPMI-8226 it was 0.419 µM (active); with OVCAR-5 it was 4.9 µM (inactive); with DMS-114, 0.19 µM (active); in the experiment with T47D it was 0.385 µM (active). Besides, the GI50 was 2.32 µM (inactive) in the experiment with DU-145; 0.521 µM (active) in the experiment on SF-295; 0.703 µM (active) in the experiment on U-251; 0.29 µM (active) in the experiment with K562; 0.323 µM (active) with SF-268; 1.21 µM (inactive) in the experiment on CAKI-1. In addition, the GI50 in the experiment with CCRF-CEM is 0.278 µM (active); in the experiment on SW-620 it was 0.48 µM (active).

Consider `CCOC(=O)CCC(=O)C1c2cccc(O)c2C(=O)c2c(O)cc(C)cc21` (stereo not given), for which the GI50 was 0.226 µM (active) in the experiment with SF-539; 1.87 µM (inactive) in the experiment on TK-10; 1.32 µM (inactive) in the experiment on 786-0; 0.729 µM (active) with LOX IMVI; 1.79 µM (inactive) with SN12C; 1.01 µM (active) with RPMI-8226. For the same compound, the GI50 was 0.706 µM (active) in the experiment with OVCAR-5; 0.296 µM (active) in the experiment with DMS-114; 0.332 µM (active) in the experiment on SF-295; 0.252 µM (active) in the experiment with U-251; 0.429 µM (active) in the experiment with K562; 0.542 µM (active) in the experiment on SF-268. In addition, the GI50 in the experiment with CAKI-1 was 1.79 µM (inactive); in the experiment on CCRF-CEM it was 0.519 µM (active); with SW-620 it was 0.948 µM (active).

Turning to `CCOC(=O)COc1ccccc1/C=C1\CCC(CN(C)C)C1=O` (stereo not given), the GI50 in the experiment with SF-539 is 11.9 µM (inactive); with TK-10 it was 12.9 µM (inactive); in the experiment on 786-0, 2.94 µM (inactive); with LOX IMVI it was 2.22 µM (inactive); with SN12C, 5.96 µM (inactive); in the experiment on RPMI-8226, 0.902 µM (active). Besides, the GI50 was 17.9 µM (inactive) with OVCAR-5; 10.3 µM (inactive) in the experiment with DMS-114; 16.1 µM (inactive) with SF-295; 8 µM (inactive) in the experiment with U-251; 1.49 µM (inactive) with K562; 5.45 µM (inactive) in the experiment on SF-268. Moreover, the GI50 in the experiment with CAKI-1 was 3.02 µM (inactive); in the experiment on CCRF-CEM, 1.1 µM (active); in the experiment on SW-620, 2.55 µM (inactive).

`CC(CC[C@@H](C)C1CCC2[C@@H]3CC(O)C4CC(O)[C@@H](O)C[C@]4(C)C3CC[C@@]21C)C(C)(C)C` (stereo not given in full): the GI50 in the experiment with SF-539, in the experiment on TK-10, in the experiment with 786-0, in the experiment on LOX IMVI, in the experiment with SN12C and in the experiment on RPMI-8226 was > 100 µM (inactive) each time. In addition, the GI50 in the experiment with OVCAR-5, in the experiment on DMS-114, in the experiment with SF-295, with U-251, in the experiment on K562 and with SF-268 was > 100 µM (inactive) throughout. The GI50 in the experiment with CAKI-1, in the experiment on CCRF-CEM and in the experiment with SW-620 was > 100 µM (inactive) throughout.
